We go through 9 molecules from US12018280B2, “Method for freezing aggregates of pluripotent stem cell-derived cardiomyocytes” (KYOTO UNIVERSITY, priority 2016, dated 2024).

For data set [1], the system named is aggregate of GCaMP-cardiomyocytes derived from human iPS cells. Description: Cardiotoxicity of anthracycline in cardiomyocyte aggregates after freeze-thaw (GCaMP fluorescence). The format is cell-based. Here is the method:
To detect cardiotoxicity of anthracycline anticancer agents, doxorubicin (10 μM) or daunorubicin (20 μM), was added for 24 hours to an aggregate of GCaMP-cardiomyocytes derived from human iPS cells seven days after thawing. The intracellular calcium wave was plotted with GCaMP fluorescence for an aggregate of cardiomyocytes without any agent (control) (FIGS. 8-A, 8-B), three days after the addition of doxorubicin (FIG. 8-C), or three days after the addition of daunorubicin (FIG. 8-D).
The change in parameters of GCaMP fluorescence wave was analyzed with the addition of doxorubicin (10 μM) or daunorubicin (20 μM) (FIGS. 9-A, 9-B).

For data set [2] the test system is unchanged. Description: GCaMP fluorescence wave (intracellular calcium) drug response of cardiomyocyte aggregates after freeze-thaw. The format is cell-based. Particulars: for change of TtP, CAD50, CAD70 and CAD90: 300 nM E4031, 1 μM astemizole, 1 μM nifekalant, 10 μM chromanole 293b, 30 μM mexiletine, 50 nM nifedipine; for change of PtP (beat interval): 300 nM isoproterenol, 1 μM propranol. From the text: A gene encoding GCaMP3, which is a calcium sensitive GFP that emits GFP fluorescence when bound to intracellular calcium, was introduced into a human iPS cell line (253G1) or a monkey iPS cell line (HT4M2) by AAVS1 region-specific gene transfer mediated by CRISPR. From the human GCaMP3-iPS cells, cardiomyocytes were induced in the same manner as in Section 1 to prepare an aggregate of cardiomyocytes that emitted GFP fluorescence in response to the change in intracellular calcium concentration during the beating. Also, from the monkey GCaMP-iPS cells, cardiomyocytes were induced using cytokines as described previously (Nat Biotechnol. 2007 September; 25(9): 1015-24. Epub 2007 Aug. 26) to prepare an aggregate of cardiomyocytes that emitted GFP fluorescence in response to the change in intracellular calcium concentration. Specifically, the monkey GCaMP-iPS cells were cultured for 24 hours with RPMI-B27 medium (Invitrogen) supplemented with human recombinant activin A (R&D Systems) (100 ng/ml), and then for four days with RPMI-B27 medium supplemented with human recombinant BMP4 (R&D Systems) (10 ng/ml). After the medium was replaced with RPMI-B27 medium without these cytokines, the cells were cultured for 21 days. The GCaMP-cardiomyocytes were dispersed into single cells with a trypsin/collagenase solution, and seeded on Sumilon PrimeSurface 96-well V-bottom plates at 1×10^5 cells/well to form uniform aggregates (700 to 1000 μm in diameter). The aggregates were used to analyze the change in intracellular calcium concentration wave, which synchronized the beating of cardiomyocytes.
derived from human iPS cells seven days after thawing to compare parameters of GCaMP fluorescence wave (change in intracellular calcium ion concentration) before and 10 minutes after the E4031 addition. Analyzed were time from the rise to the peak of fluorescence wave (TtP), and time from the rise to the peak of fluorescence wave and then to the decrease to 50% of the peak value (CaD50), to 70% of the peak value (CaD70), or to 90% of the peak value (CaD90) (FIG. 5-A).
E4031 was added to an aggregate of GCaMP-cardiomyocytes derived from human iPS cells seven days after thawing at 0, 0.3, 3, 30, or 300 nM to analyze the rate of change with E4031.
(In general: Calcium flux is commonly read through the fluorescence of an indicator in the cells.)

Data set [3] relates to cardiomyocytes induced from pluripotent stem cells. The note with it: cardiomyocytes induced by the method described in WO 2015/182765; cited from earlier work.
The mark [4] stands for this setting: doxorubicin 10 μM or daunorubicin 20 μM.
Where [5] appears, read: 50 μM ryanodine, seven days after thawing.

For the molecule `COc1cccc2c1C(=O)c1c(O)c3c(c(O)c1C2=O)C[C@@](O)(C(C)=O)C[C@@H]3O[C@H]1C[C@H](N)[C@H](O)[C@H](C)O1` [daunorubicin], in data set [1] (setting [4]), the “amplitude of GCaMP fluorescence wave” value was “tended to decrease significantly”; the “change of PtP” value is listed as “significantly decreased”; the “change of TtP and CAD” value was “not significantly changed”. In addition, in data set [1] (doxorubicin 10 μM or daunorubicin 20 μM added for 24 hours, three days after the addition), the “intracellular calcium wave findings (cardiotoxicity)” value was “short PtP, tachycardia, variable heartbeat interval, and arrhythmia”.
On to `Cn1c(NCCN(CCO)CCCc2ccc([N+](=O)[O-])cc2)cc(=O)n(C)c1=O` [nifekalant], for which the “change of TtP, CAD50, CAD70 and CAD90” value in data set [2] (seven days after thawing) is “extended”.
With ryanodine, in data set [2] (setting [5]), the “change of PtP (beat interval)” value is reported as “increased PtP” and the “peak value of GCaMP fluorescence (PeakValue, intracellular calcium increase)” value is on record as “decreased”.
In the case of `COc1ccc(CCN2CCC(Nc3nc4ccccc4n3Cc3ccc(F)cc3)CC2)cc1` [astemizole], the “change of TtP, CAD50, CAD70 and CAD90” value in data set [2] (seven days after thawing) is “extended”.
Take `CCS(=O)(=O)N(C)[C@H]1c2cc(C#N)ccc2OC(C)(C)[C@@H]1O` [chromanole 293b]: the “effect on action potential” value in data set [3] is listed as “prolongation of action potential”. Moreover, the “change of TtP, CAD50, CAD70 and CAD90” value in data set [2] (seven days after thawing) is recorded as “extended”.
Regarding `CC(C)NCC(O)c1ccc(O)c(O)c1` (centres unmarked) [isoproterenol], the “change of PtP (beat interval)” value in data set [2] (setting [5]) is “decreased PtP”.
For the molecule `Cc1cccc(CCN2CCC(C(=O)c3ccc(NS(C)(=O)=O)cc3)CC2)n1` [E4031], the “effect on action potential” value in data set [3] was “prolongation of action potential”. The “change of TtP, CAD50, CAD70 and CAD90” value in data set [2] (seven days after thawing) is “extended”. Also, in data set [2] (300 nM, 10 minutes after addition vs before, aggregate seven days after thawing), the “extension of all GCaMP fluorescence wave parameters (TtP, CaD50, CaD70, CaD90)” value is “around 40%”. Besides, the “concentration at or above which TtP, CAD50, CAD70 and CAD90 were extended in a concentration-dependent manner” value in data set [2] (tested at 0, 0.3, 3, 30, 300 nM, seven days after thawing) was not below 3 nM.
`CC(C)NCC(O)COc1cccc2ccccc12` (centres unmarked) [propranol]: the “change of PtP (beat interval)” value in data set [2] (setting [5]) is reported as “increased PtP”.
Regarding `Cc1cccc(C)c1OCC(C)N` (centres unmarked) [mexiletine], the “change of TtP, CAD50, CAD70 and CAD90” value in data set [2] (seven days after thawing) is reported as “extended”.
